Assay results: patent US8501786B2, “Hydroxymethyl pyrrolidines as beta 3 adrenergic receptor agonists” (Merck Sharp & Dohme Corp., priority 2009, dated 2013)
Where a name gives a salt, the structure may show the parent alone.

Molecular target: T1, human β3 adrenergic receptor (Homo sapiens, UniProt P13945)
T1 construct: stably transfected with the cloned β-adrenergic receptor (β1, β2 or β3); expressed in transfected cells; host or cells: Chinese hamster ovary (CHO) cells, stably transfected
Assay: Functional assay: cAMP production (LANCE TR-FRET) in CHO cells stably transfected with cloned β3 adrenergic receptor
Type: cell-based
Conditions: Table 6; human β3 functional activity given as ranges; read-out: Human β3 functional

T1 sequence (P13945 whole entry): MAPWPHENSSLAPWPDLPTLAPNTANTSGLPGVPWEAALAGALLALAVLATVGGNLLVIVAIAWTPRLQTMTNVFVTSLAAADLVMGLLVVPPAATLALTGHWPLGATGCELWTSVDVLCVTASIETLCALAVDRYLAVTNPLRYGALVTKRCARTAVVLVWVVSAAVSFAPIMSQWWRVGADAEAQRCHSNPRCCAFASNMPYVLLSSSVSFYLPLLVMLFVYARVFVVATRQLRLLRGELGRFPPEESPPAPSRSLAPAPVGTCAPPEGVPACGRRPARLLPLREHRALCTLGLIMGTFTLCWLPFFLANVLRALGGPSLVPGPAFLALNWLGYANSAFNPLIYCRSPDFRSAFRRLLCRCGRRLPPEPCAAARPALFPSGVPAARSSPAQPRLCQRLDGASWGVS

SMILES	EC50
CC(NC(=O)c1cscn1)C(=O)Nc1ccc(C[C@@H]2CC[C@H]([C@H](O)c3cccnc3)N2)cc1 (some centres unmarked) [Example 251]	1 to 10 nM
CC(NC(=O)c1nc[nH]n1)C(=O)Nc1ccc(C[C@@H]2CC[C@H]([C@H](O)c3cccnc3)N2)cc1 (some centres unmarked) [Example 252]	1 to 10 nM
CC(NC(=O)c1cnccn1)C(=O)Nc1ccc(C[C@@H]2CC[C@H]([C@H](O)c3cccnc3)N2)cc1 (some centres unmarked) [Example 253]	11 to 100 nM
CC(N)C(=O)Nc1ccc(C[C@@H]2CC[C@H]([C@H](O)c3cccnc3)N2)cc1 (some centres unmarked) [Example 254]	11 to 100 nM
CC(NC(=O)c1cccc(F)c1F)C(=O)Nc1ccc(C[C@@H]2CC[C@H]([C@H](O)c3cccnc3)N2)cc1 (some centres unmarked) [Example 255]	< 1 nM
CC(NS(=O)(=O)c1ccccc1F)C(=O)Nc1ccc(C[C@@H]2CC[C@H]([C@H](O)c3cccnc3)N2)cc1 (some centres unmarked) [Example 256]	11 to 100 nM
CC(NS(=O)(=O)c1ccccc1)C(=O)Nc1ccc(C[C@@H]2CC[C@H]([C@H](O)c3cccnc3)N2)cc1 (some centres unmarked) [Example 257]	11 to 100 nM
CC(NS(=O)(=O)Cc1ccccc1)C(=O)Nc1ccc(C[C@@H]2CC[C@H]([C@H](O)c3cccnc3)N2)cc1 (some centres unmarked) [Example 258]	11 to 100 nM
CC(NC(=O)c1ccc(F)cc1)C(=O)Nc1ccc(C[C@@H]2CC[C@H]([C@H](O)c3cccnc3)N2)cc1 (some centres unmarked) [Example 259]	1 to 10 nM
CC(NC(=O)c1ccccc1)C(=O)Nc1ccc(C[C@@H]2CC[C@H]([C@H](O)c3cccnc3)N2)cc1 (some centres unmarked) [Example 260]	< 1 nM
CC(C(=O)Nc1ccc(C[C@@H]2CC[C@H]([C@H](O)c3cccnc3)N2)cc1)N(C)C(=O)c1ccccc1F (some centres unmarked) [Example 261]	11 to 100 nM

Same assay, conditions: cAMP production, CHO cells expressing human β3 AR; read-out: human Beta-3 agonist functional activity

SMILES	EC50
O=C(Nc1ccc(C[C@@H]2CC[C@H]([C@H](O)c3cncc(F)c3)N2)cc1)[C@@H]1CCc2scnc21 [Example 262, (4R)—N-[4-({(2S,5R)-5-[(R)-(5-fluoropyridin-3-yl)(hydroxy)methyl]pyrrolidin-2-yl}methyl)phenyl]-5,6-dihydro-4H-cyclopenta[d][1,3]thiazole-4-carboxamide, trifluoroacetic acid salt]	< 10 nM

Molecular target: T2, β3AR (Rattus norvegicus, UniProt P26255)
T2 construct: Following intravenous administration to rats; host or cells: living rats (bladder, in vivo)
Assay: not given
Conditions: rats, intravenous administration, cystometric studies; cited from earlier work

T2 sequence (P26255 whole entry): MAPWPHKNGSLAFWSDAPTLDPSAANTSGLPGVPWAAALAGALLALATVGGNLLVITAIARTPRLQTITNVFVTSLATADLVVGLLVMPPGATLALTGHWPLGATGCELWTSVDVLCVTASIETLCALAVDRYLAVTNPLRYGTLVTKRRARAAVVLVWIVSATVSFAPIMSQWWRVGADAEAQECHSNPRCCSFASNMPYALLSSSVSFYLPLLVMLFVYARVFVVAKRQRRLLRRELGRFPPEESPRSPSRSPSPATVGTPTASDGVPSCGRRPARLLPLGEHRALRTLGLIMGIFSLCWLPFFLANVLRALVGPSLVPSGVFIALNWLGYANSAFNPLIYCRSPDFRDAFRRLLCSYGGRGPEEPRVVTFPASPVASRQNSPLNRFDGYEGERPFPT

SMILES	bladder capacity
C[C@H](Cc1ccc2c(c1)OC(C(=O)[O-])(C(=O)[O-])O2)NC[C@H](O)c1cccc(Cl)c1.[Na+].[Na+] [CL316243]	increases bladder capacity

Same assay, conditions: rats, intravenous administration; cited from earlier work

SMILES	bladder pressure
C[C@H](Cc1ccc2c(c1)OC(C(=O)[O-])(C(=O)[O-])O2)NC[C@H](O)c1cccc(Cl)c1.[Na+].[Na+] [CL316243]	reduces bladder pressure
